Experimental data taken from paper PMC4747952, “Development of TASP0410457 (TASP457), a novel dihydroquinolinone derivative as a PET radioligand for central histamine H3 receptors” (EJNMMI Research, 2016).
pIC50: −log10 of the molar value.

Experiments:
[1] = target: T1, rat H3R (Rattus norvegicus, UniProt Q9QYN8); test: In vitro binding to H3Rs, rat cerebral cortex membranes, [^3H]N-α-methylhistamine; conditions: 1 nM [^3H]N-α-methylhistamine, geometric mean, n = 3, read-out: Affinity for H3Rs Rat, IC50
T1 construct: Rat cerebral cortex and monkey frontal cortex were dissected; from tissue; host or cells: rat cerebral cortex membranes
Experimental: Rat cerebral cortex and monkey frontal cortex were dissected, homogenized with 50 mM Tris buffer (pH 7.4) containing 5 mM EDTA and Protease Inhibitor Cocktail Tablets (Roche Diagnostics, Indianapolis, IN) and centrifuged at 48,000×g for 15 min at 4 °C. The pellets were then suspended in binding buffer (50 mM Tris containing 5 mM EDTA, pH 7.4) and stored at −80 °C as membrane preparations.
The membrane preparations were thawed and incubated in the binding buffer containing 0.1 % bovine serum albumin, 1 nM [^3H]N-α-methylhistamine (PerkinElmer, Waltham, MA) with various concentrations of a dihydroquinolinone derivative (i.e., test compound) at 25 °C for 1 h. The reaction was terminated by rapid filtration through 96-well GF/C filter plates (PerkinElmer) presoaked with 0.5 % polyethyleneimine (Wako, Osaka, Japan). After washes with ice-cold binding buffer, the plates were dried and filled with Microscint-o (PerkinElmer). The radioactivity retained on the filters was counted using a TopCount NXT (PerkinElmer). Total and nonspecific radioligand binding was determined by reaction without and with 10 μM thioperamide and clobenpropit, respectively. The specific radioligand binding was then calculated by subtracting the nonspecific binding from the total binding. The IC50 value for inhibition of the radioligand binding by the test compound was determined using a nonlinear fit of the concentration-response curve for each test compound using SAS 9.2 (SAS Institute Inc., Cary, NC). Data were expressed as the geometric means of IC50 values from three independent experiments run in duplicate.

[2] = target: T2, P-glycoprotein (MDR1) (Homo sapiens, UniProt P08183); test: P-glycoprotein-mediated transcellular transport, LLC-GA5-COL300 cells; assay type: in vitro ADME; conditions: for susceptibility for P-glycoprotein (substrate or not): assumed criterion: efflux ratio (ER) exceeding 2.00; for efflux ratio at 2 h, 1 µM: human, LLC-PK1, ER=Papp, b to a/Papp, a to b, LLC-GA5-COL300 cells
T2 construct: expressed in transfected cells; host or cells: LLC-GA5-COL300
Experimental: Assays for P-glycoprotein-mediated transcellular transport of compounds LLC-GA5-COL300 cells expressing human P-glycoprotein were seeded at a density of 4.5 × 10^5 cells/cm2 onto polycarbonate membrane filters of 12-well cell culture insert plates and cultured at 37°C in a humidified incubator containing 5% CO2 for 3 days. After each cell monolayer was pre-incubated at 37°C for 20 min in Hank’s balanced salt solution containing 10 mM HEPES (HBSS buffer), transcellular transport experiments were initiated by adding the test compound solution to the apical or basal side of the cell culture inserts. HBSS buffer was sampled from the compartment opposite of that spiked with the test compounds at 0.5, 1, 1.5 and 2 h after initiation of the experiments, and concentrations of the test compounds were determined using LC-MS/MS. The apparent permeability coefficient (Papp) of the test compounds was calculated using the following equation:
Papp= dQ/dt / C0 / A Eq. 1, where dQ/dt represents the rate of permeation of the compounds, C0 is the initial concentration of the test compounds ([…]), and A is the area of the monolayer. The efflux ratio (ER) was defined as […]
ER=Papp, b to a/Papp, a to b Eq. 2, where Papp, b to a and Papp, a to b represent Papp in the basal-to-apical (b to a) and apical-to-basal (a to b) directions, respectively. […]

[3] = Ex vivo pharmacokinetic assessment in the rat brain using LC-MS/MS; conditions: 10 μg/kg intravenous, n = 3
Experimental: The rats were decapitated at 5, 15, 30, 60, and 120 min after intravenous administration of TASP0390136, TASP0390174, TASP0410426, TASP0410427, TASP0410457, or TASP0434988 at a dose of 10 μg/kg. The cerebellum and forebrain, including the medial prefrontal and cingulate cortices and anterior striatum, were dissected and homogenized with four volumes of distilled water. The homogenates were protein-precipitated with methanol/acetonitrile (1:9) and were centrifuged at 3974×g for 10 min at 4 °C. The resultant supernatants were injected into an HPLC (Shimadzu-20AD, Shimadzu, Kyoto, Japan) and a tandem mass spectrometer (API4000, AB SCIEX, Framingham, MA) using a Shim-pak XR-ODS column (3.0 × 30 mm, Shimadzu) at 50 °C. TASP0410457 was eluted with a mobile phase consisting of 10 mM of ammonium acetate/acetonitrile with a linear gradient at a flow rate of 1.3 mL/min, and ammonium formate instead of ammonium acetate was used for eluting the other five compounds. […] The eluted TASP0390136, TASP0390174, TASP0410426, TASP0410427, TASP0410457, and TASP0434988 were ionized using an electrospray interface and were detected using reaction monitoring of the transitions of m/z 395 to 91, 395 to 98, 413 to 98, 425 to 98, 408 to 138, and 407 to 138, respectively. A dihydroquinolinone compound (6-[(1-cyclobutylpiperidin-4-yl)oxy]-1-(3,5-difluorophenyl)-3,4-dihydroquinolin-2(1H)-one) was used as an internal standard for all assays. The lower qualification limit for TASP0410457 was 0.05 ng/g tissue, and the limit for the other five compounds was 0.15 ng/g tissue. Data were expressed as standardized uptake values (SUVs) calculated as follows: SUV=tissueconcentrationg/g×bodyweightg/injecteddoseg

[4] = system: Glutamate Kainate; test: Off-target binding (Cerep); set-up: unit of the concentration uncertain
From the text: (§1) Off-target binding of compounds assessed using an in-house assay (M4) and a commercial battery (all
(§2) others) (Cerep, Celle L'Evescault, France).

[5] = system: Serotonin 5-HT1B; test: Off-target binding (Cerep); set-up: unit of the concentration uncertain
From the text: as §1, §2

[6] = system: Serotonin 5-HT1D; test: Off-target binding (Cerep); set-up: unit of the concentration uncertain
From the text: as §1, §2

[7] = system: Imidazoline I2; test: Off-target binding (Cerep); set-up: unit of the concentration uncertain
From the text: as §1, §2

[8] = system: Opioid kappa (KOP); test: Off-target binding (Cerep); set-up: unit of the concentration uncertain
From the text: as §1, §2

[9] = Concentration 1 (unit uncertain)
[10] = Concentration 10 (unit uncertain)

T1 sequence (Q9QYN8 whole entry): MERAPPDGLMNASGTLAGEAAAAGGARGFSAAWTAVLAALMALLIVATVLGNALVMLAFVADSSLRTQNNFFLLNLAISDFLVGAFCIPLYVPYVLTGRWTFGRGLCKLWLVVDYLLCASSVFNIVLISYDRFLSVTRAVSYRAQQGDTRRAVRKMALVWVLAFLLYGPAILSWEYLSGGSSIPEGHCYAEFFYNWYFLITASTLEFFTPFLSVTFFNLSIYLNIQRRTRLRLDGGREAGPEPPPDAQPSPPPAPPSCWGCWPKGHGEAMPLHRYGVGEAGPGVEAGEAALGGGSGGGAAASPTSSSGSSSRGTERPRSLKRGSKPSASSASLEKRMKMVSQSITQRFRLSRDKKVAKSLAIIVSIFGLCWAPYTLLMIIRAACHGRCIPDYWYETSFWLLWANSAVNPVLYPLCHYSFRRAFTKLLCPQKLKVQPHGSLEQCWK
T2 sequence (P08183 whole entry): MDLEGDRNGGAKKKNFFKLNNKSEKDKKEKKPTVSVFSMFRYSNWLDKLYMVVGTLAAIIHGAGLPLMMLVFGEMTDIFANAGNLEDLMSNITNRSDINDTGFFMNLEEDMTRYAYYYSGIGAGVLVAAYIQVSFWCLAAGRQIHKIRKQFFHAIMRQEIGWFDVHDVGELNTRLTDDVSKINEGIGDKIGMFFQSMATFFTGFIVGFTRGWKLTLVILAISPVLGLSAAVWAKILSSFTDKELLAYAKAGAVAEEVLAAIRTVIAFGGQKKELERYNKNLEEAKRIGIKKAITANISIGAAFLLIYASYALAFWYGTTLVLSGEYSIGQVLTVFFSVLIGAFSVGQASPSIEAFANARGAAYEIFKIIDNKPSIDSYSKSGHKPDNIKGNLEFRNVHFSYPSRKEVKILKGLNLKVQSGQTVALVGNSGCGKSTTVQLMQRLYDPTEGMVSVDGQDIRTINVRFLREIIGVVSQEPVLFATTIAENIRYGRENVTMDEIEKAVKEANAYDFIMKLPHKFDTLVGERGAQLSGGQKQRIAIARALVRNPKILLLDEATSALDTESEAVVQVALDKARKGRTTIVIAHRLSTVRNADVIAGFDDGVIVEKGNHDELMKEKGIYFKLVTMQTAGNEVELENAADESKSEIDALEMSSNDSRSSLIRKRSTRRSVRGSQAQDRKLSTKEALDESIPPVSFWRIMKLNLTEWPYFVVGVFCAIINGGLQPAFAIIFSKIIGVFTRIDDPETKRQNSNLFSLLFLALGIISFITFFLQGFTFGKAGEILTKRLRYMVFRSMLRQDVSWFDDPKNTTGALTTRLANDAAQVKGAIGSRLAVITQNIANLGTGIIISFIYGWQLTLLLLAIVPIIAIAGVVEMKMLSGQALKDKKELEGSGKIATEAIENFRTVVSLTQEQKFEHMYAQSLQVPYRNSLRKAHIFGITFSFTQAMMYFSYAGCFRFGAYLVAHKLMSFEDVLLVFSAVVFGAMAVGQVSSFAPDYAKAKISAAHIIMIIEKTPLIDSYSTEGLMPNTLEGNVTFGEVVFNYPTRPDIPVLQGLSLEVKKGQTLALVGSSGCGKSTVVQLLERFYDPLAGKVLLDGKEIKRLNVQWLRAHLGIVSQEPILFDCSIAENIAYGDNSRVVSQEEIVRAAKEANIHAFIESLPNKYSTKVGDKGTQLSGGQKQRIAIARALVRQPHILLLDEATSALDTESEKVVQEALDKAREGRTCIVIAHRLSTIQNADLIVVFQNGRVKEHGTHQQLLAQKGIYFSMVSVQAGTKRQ

SMILES	pIC50 [1]	susceptibility for P-glycoprotein (substrate or not) [2]	efflux ratio at 2 h, 1 µM [2]	Mean peak concentration in the forebrain expressed as SUV [3]	% Inhibition [4, 9]	% Inhibition [5, 9]	% Inhibition [6, 9]	% Inhibition [7, 9]	% Inhibition [8, 9]	% Inhibition [4, 10]	% Inhibition [5, 10]	% Inhibition [6, 10]	% Inhibition [7, 10]	% Inhibition [8, 10]
COc1ccc(N2C(=O)CCc3cc(OC4CCN(C5CCC5)CC4)ccc32)cc1 [TASP0434988, 6-[(1-cyclobutylpiperidin-4-yl)oxy]-1-(4-methoxyphenyl)-3,4-dihydroquinolin-2(1H)-one]	9.11	P-glycoprotein substrates	2.14	0.58 SUV	4%	3%	-12%	16%	-12%	–	–	–	–	–
COc1ccc(N2C(=O)CCc3cc(OCCCN4CCC[C@H]4C)ccc32)cc1 [TASP0390136, 1-(4-methoxyphenyl)-6-{3-[(2R)-2-methylpyrrolidin-1-yl]propoxy}-3,4-dihydroquinolin-2(1H)-one]	8.56	P-glycoprotein substrates	6.29	0.30 SUV	–	–	–	–	–	-11%	-25%	5%	23%	11%
COc1ccc(N2C(=O)CCc3cc(OC4CCN(C5CCC5)CC4)ccc32)cn1 [TASP0410457, 6-[(1-Cyclobutylpiperidin-4-yl)oxy]-1-(6-methoxypyridin-3-yl)-3,4-dihydroquinolin-2(1H)-one]	8.63	not a substrate of P-glycoprotein	1.64	0.85 SUV	–	–	–	–	–	-12%	25%	17%	1%	-6%
